From patent publication US7189741B2, “Indolylpiperidine derivatives as antihistaminic and antiallergic agents” (Almirall Prodesfarma S.A., priority 2000, dated 2007) come the findings set out here.

The target of one test is T1, histamine-H1 receptors (Cavia porcellus, UniProt P31389).
T1 construct: performed in guinea pig cerebellum membranes as described previously; from tissue; host or cells: guinea pig cerebellum membranes
Put plainly: Histamine-H1 receptor binding assay ([3H]-mepyramine displacement). Also noted: species or system guinea pig. The method, then:
Briefly, the membrane suspensions (160 μg/ml) were incubated at 30° C. with 0.7 nM [^3H]-mepyramine and different concentrations of the test compounds in a final volume of 250 μl. Binding reactions were terminated by filtration after 30 min of incubation and the bound radioactivity was determined. The specific binding was measured in the presence of 10 μM of promethazine. The affinity of each test compound to the receptor was determined by using at least six different concentrations run in duplicate. IC50 values were obtained by non-linear regression by use of SAS on a DEC AXP computer.

Test [1] relates to histamine induced skin vascular permeability. Put plainly: Histamine-induced skin vascular permeability in rats. In kind it is in vivo. To be noted: Rattus norvegicus; male Wistar rats, oral, dose of 1 mg/Kg, 4 hours after administration, vs vehicle treated group. As to the method: Male Wistar rats (180–210 g) were treated orally with the test compound or vehicle. 1, 4, 8 and 24 hours later, the rats were lightly anaesthetized with ether. The cutaneous reaction was induced by two intradermal injections of 50 μl of histamine (100 μg/ml) onto the back, followed by a intravenous injection of 3 ml/kg of Evan's Blue (5 mg/ml), both dissolved in saline. Sixty min later, the rats were killed by cervical dislocation and the back skin dissected free. The diameter (in millimeters) of the papule was measured in two directions and the area was calculated.

The mark [2] stands for this setting: guinea pig cerebellum membranes, 0.7 nM [3H]-mepyramine, 30 min at 30° C., read-out: Binding to receptor H1 (IC50).

Structures are written as SMILES. Where two headings read alike, the source gives them in different places.

T1 sequence (P31389 whole entry): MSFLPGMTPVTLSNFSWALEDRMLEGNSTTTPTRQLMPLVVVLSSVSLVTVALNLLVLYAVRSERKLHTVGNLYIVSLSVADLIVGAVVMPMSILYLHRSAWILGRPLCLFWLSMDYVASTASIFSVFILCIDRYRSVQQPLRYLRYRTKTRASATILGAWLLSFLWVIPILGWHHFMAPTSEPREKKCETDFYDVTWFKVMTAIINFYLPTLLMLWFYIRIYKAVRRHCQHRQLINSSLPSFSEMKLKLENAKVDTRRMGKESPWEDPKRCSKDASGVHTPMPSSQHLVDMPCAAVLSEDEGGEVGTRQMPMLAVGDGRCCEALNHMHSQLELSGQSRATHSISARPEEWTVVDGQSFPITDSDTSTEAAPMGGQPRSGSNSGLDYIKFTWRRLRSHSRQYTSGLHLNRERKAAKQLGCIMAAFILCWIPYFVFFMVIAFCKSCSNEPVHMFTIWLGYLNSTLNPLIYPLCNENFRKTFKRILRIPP

Broadly, the IC50 is the concentration at which inhibition is half-maximal. On to `O=C(O)c1ccccc1OCCN1CCC(c2cn(CC3OCCO3)c3ccccc23)CC1` [Example 1, 2-{2-[4-(1-[1,3]dioxolan-2-ylmethyl-1H-indol-3-yl)-piperidin-1-yl]-ethoxy}-benzoic acid], for which the IC50 on histamine-H1 receptors (setting [2]) came to 200 nM.

As for `O=C(O)c1ccccc1OCCN1CCC(c2cn(Cc3ccncc3)c3ccccc23)CC1` [Example 3, 2-{2-[4-(1-pyridin-4-ylmethyl-1H-indol-3-yl)-piperidin-1-yl]-ethoxy}-benzoic acid], the IC50 on histamine-H1 receptors (setting [2]) was 267 nM.

For the compound `Cn1ccnc1SCCCn1cc(C2CCN(CCOc3ccccc3C(=O)O)CC2)c2ccccc21` [Example 6, 2-[2-(4-{1-[3-(1-methyl-1H-imidazol-2-ylsulfanyl)-propyl]-1H-indol-3-yl}-piperidin-1-yl)-ethoxy]-benzoic acid], the IC50 on histamine-H1 receptors (setting [2]) turned out to be 463 nM.

Turning to `O=C(O)c1ccccc1OCCN1CCC(c2cn(Cc3ccco3)c3ccccc23)CC1` [Example 9, 2-{2-[4-(1-furan-2-ylmethyl-1H-indol-3-yl)-piperidin-1-yl]-ethoxy}-benzoic acid], the 50% inhibitory concentration (IC50) on histamine-H1 receptors (setting [2]) was 98 nM.

On to `O=C(O)c1ccccc1OCCN1CCC(c2cn(Cc3ccsc3)c3ccccc23)CC1` [Example 11, 2-{2-[4-(1-thiophen-3-ylmethyl-1H-indol-3-yl)-piperidin-1-yl]-ethoxy}-benzoic acid], for which the IC50 on histamine-H1 receptors (setting [2]) is 400 nM.

On to `O=C(O)c1ccccc1OCCN1CCC(c2cn(CCc3cccs3)c3ccccc23)CC1` [Example 12, 2-(2-{4-[1-(2-thiophen-2-yl-ethyl)-1H-indol-3-yl]-piperidin-1-yl}-ethoxy)-benzoic acid], for which the IC50 at histamine-H1 receptors (setting [2]) came out at 43 nM.

Consider `O=C(O)c1ccccc1OCCN1CCC(c2cn(CCc3ccsc3)c3ccccc23)CC1` [Example 13, 2-(2-{4-[1-(2-thiophen-3-yl-ethyl)-1H-indol-3-yl]-piperidin-1-yl}-ethoxy)-benzoic acid], for which, at histamine-H1 receptors (setting [2]), the IC50 came out at 59 nM.

Turning to `O=C(O)c1ccccc1OCCN1CCC(c2cn(CCCOc3ccc4c(c3)OCO4)c3ccccc23)CC1` [Example 16, 2-[2-(4-{1-[3-(benzo[1,3]dioxol-5-yloxy)propyl]-1H-indol-3-yl}piperidin-1-yl)ethoxy]benzoic acid], at histamine-H1 receptors (setting [2]), the IC50 stood at 78 nM.

As for `O=C(O)c1ccccc1OCCN1CCC(c2cn(Cc3ccc(Cl)s3)c3ccccc23)CC1` [Example 19, 2-(2-{4-[1-(5-chloro-thiophen-2-ylmethyl)-1H-indol-3-yl]-piperidin-1-yl}-ethoxy)-benzoic acid], the IC50 at histamine-H1 receptors (setting [2]) was determined as 120 nM.

As to `O=C(O)c1ccccc1OCCN1CCC(c2cn(CCCC3OCCO3)c3ccccc23)CC1` [Example 21, 2-(2-{4-[1-(3-[1,3]dioxolan-2-yl-propyl)-1H-indol-3-yl]-piperidin-1-yl}-ethoxy)-benzoic acid], at histamine-H1 receptors (setting [2]), the IC50 was 295 nM.

One may read the inhibition in vivo as the share of the control response that was lost under treatment. Lower therefore signals little suppression. In test [1], `O=C(O)c1ccccc1OCCN1CCC(c2cn(Cc3ccco3)c3cc(F)ccc23)CC1` [Example 22, 2-{2-[4-(6-fluoro-1-furan-2-ylmethyl-1H-indol-3-yl)-piperidin-1-yl]-ethoxy}-benzoic acid] registered an inhibition in vivo at 1 mg/kg of over 50%.

Turning to `O=C(O)c1ccccc1OCCN1CCC(c2cn(CCC3OCCO3)c3ccccc23)CC1` [Example 23, 2-(2-{4-[1-(2-[1,3]dioxolan-2-yl-ethyl)-1H-indol-3-yl]-piperidin-1-yl}-ethoxy)-benzoic acid], the half-inhibitory concentration (IC50) on histamine-H1 receptors (setting [2]) came to 354 nM. The inhibition in vivo at 1 mg/kg in test [1] is over 50%.

`O=C(O)c1ccccc1OCCN1CCC(c2cn(CCC3OCCO3)c3cc(F)ccc23)CC1` [Example 24, 2-(2-{4-[1-(2-[1,3]dioxolan-2-yl-ethyl)-6-fluoro-1H-indol-3-yl]-piperidin-1-yl}-ethoxy)-benzoic acid]: on histamine-H1 receptors (setting [2]), the IC50 came out at 51 nM. Moreover, the inhibition in vivo at 1 mg/kg in test [1] was over 50%.

For `O=C(O)c1cccc(CN2CCC(c3cn(Cc4cccs4)c4ccccc34)CC2)c1` [Example 25, 3-[4-(1-thiophen-2-ylmethyl-1H-indol-3-yl)-piperidin-1-ylmethyl]-benzoic acid], the IC50 on histamine-H1 receptors (setting [2]) was 90 nM.

Take `O=C(O)c1cccc(CN2CCC(c3cn(CCC4OCCO4)c4ccccc34)CC2)c1` [Example 28, 3-{4-[1-(2-[1,3]dioxolan-2-yl-ethyl)-1H-indol-3-yl]-piperidin-1-ylmethyl}-benzoic acid]: the IC50 at histamine-H1 receptors (setting [2]) worked out at 205 nM.

As to `O=C(O)c1cc(CN2CCC(c3cn(CCCOc4ccc5c(c4)OCO5)c4ccccc34)CC2)ccc1F` [Example 50, 5-(4-{1-[3-(benzo[1,3]dioxol-5-yloxy)-propyl]-1H-indol-3-yl}-piperidin-1-ylmethyl)-2-fluoro-benzoic acid], the IC50 on histamine-H1 receptors (setting [2]) was 155 nM.

As for `COc1ccc(CN2CCC(c3cn(CCc4cccs4)c4cc(F)ccc34)CC2)cc1C(=O)O` [Example 69, 5-{4-[6-fluoro-1-(2-thiophen-2-yl-ethyl)-1H-indol-3-yl]-piperidin-1-ylmethyl}-2-methoxy-benzoic acid], the IC50 on histamine-H1 receptors (setting [2]) was 135 nM.

For `COc1ccc(CN2CCC(c3cn(Cc4cccs4)c4ccccc34)CC2)cc1C(=O)O` [Example 73, 2-methoxy-5-[4-(1-thiophen-2-ylmethyl-1H-indol-3-yl)-piperidin-1-ylmethyl]-benzoic acid], on histamine-H1 receptors (setting [2]), the IC50 came to 125 nM. Besides, in test [1], the inhibition in vivo at 1 mg/kg was over 50%.

`COc1ccc(CN2CCC(c3cn(CCc4ccsc4)c4ccccc34)CC2)cc1C(=O)O` [Example 75, 2-methoxy-5-{4-[1-(2-thiophen-3-yl-ethyl)-1H-indol-3-yl]-piperidin-1-ylmethyl}-benzoic acid]: the IC50 at histamine-H1 receptors (setting [2]) is 52 nM. This compound also displayed an inhibition in vivo at 1 mg/kg in test [1] of over 50%.

Consider `O=C(O)c1ccccc1OCCN1CCC(c2cn(CCOc3ccc4c(c3)OCO4)c3ccccc23)CC1` [Example 77, 2-[2-(4-{1-[2-(benzo[1,3]dioxol-5-yloxy)-ethyl]-1H-indol-3-yl}-piperidin-1-yl)-ethoxy]-benzoic acid], for which the IC50 at histamine-H1 receptors (setting [2]) came to 116 nM.

On to `COc1ccc(CN2CCC(c3cn(CCc4ccsc4)c4cc(F)ccc34)CC2)cc1C(=O)O` [Example 78, 5-{4-[6-fluoro-1-(2-thiophen-3-yl-ethyl)-1H-indol-3-yl]-piperidin-1-ylmethyl}-2-methoxy-benzoic acid], for which the IC50 at histamine-H1 receptors was 65 nM. Further, in test [1], the inhibition in vivo at 1 mg/kg is over 50%.

For `COc1ccc(CN2CCC(c3cn(Cc4ccc(Cl)s4)c4cc(F)ccc34)CC2)cc1C(=O)O` [Example 79, 5-{4-[1-(5-chloro-thiophen-2-ylmethyl)-6-fluoro-1H-indol-3-yl]-piperidin-1-ylmethyl}-2-methoxy-benzoic acid], the IC50 at histamine-H1 receptors (setting [2]) amounted to 150 nM. In test [1], this compound displayed an inhibition in vivo at 1 mg/kg of over 50%.

Turning to `COc1ccc(CN2CCC(c3cn(Cc4ccoc4)c4cc(F)ccc34)CC2)cc1C(=O)O` [Example 80, 5-[4-(6-fluoro-1-furan-3-ylmethyl-1H-indol-3-yl)-piperidin-1-ylmethyl]-2-methoxy-benzoic acid], the concentration for half-maximal inhibition (IC50) at histamine-H1 receptors (setting [2]) was 96 nM. This compound also had an inhibition in vivo at 1 mg/kg in test [1] of over 50%.

As for `COc1ccc(CN2CCC(c3cn(Cc4cccs4)c4cc(F)ccc34)CC2)cc1C(=O)O` [Example 82, 5-[4-(6-fluoro-1-thiophen-2-ylmethyl-1H-indol-3-yl)-piperidin-1-ylmethyl]-2-methoxy-benzoic acid], the IC50 on histamine-H1 receptors (setting [2]) was 91 nM. For the same compound, the inhibition in vivo at 1 mg/kg in test [1] was over 50%.

For the compound `COc1ccc(CN2CCC(c3cn(Cc4ccco4)c4ccccc34)CC2)cc1C(=O)O` [Example 85, 5-[4-(1-furan-2-ylmethyl-1H-indol-3-yl)-piperidin-1-ylmethyl]-2-methoxy-benzoic acid], the 50% inhibitory concentration (IC50) on histamine-H1 receptors (setting [2]) stood at 101 nM. Besides, in test [1], the inhibition in vivo at 1 mg/kg is over 50%.

In the case of `COc1ccc(CN2CCC(c3cn(Cc4ccoc4)c4ccccc34)CC2)cc1C(=O)O` [Example 86, 5-[4-(1-furan-3-ylmethyl-1H-indol-3-yl)-piperidin-1-ylmethyl]-2-methoxy-benzoic acid], the IC50 on histamine-H1 receptors (setting [2]) stood at 155 nM. Also, the inhibition in vivo at 1 mg/kg in test [1] is over 50%.

With `COc1ccc2c(c1)c(C1CCN(CCOc3ccccc3C(=O)O)CC1)cn2CCc1ccsc1` [Example 88, 2-(2-{4-[5-methoxy-1-(2-thiophen-3-yl-ethyl)-1H-indol-3-yl]-piperidin-1-yl}-ethoxy)-benzoic acid], the half-maximal inhibitory concentration (IC50) on histamine-H1 receptors (setting [2]) was determined as 51 nM.

Turning to `O=C(O)c1cccc(CN2CCC(c3cn(Cc4ccco4)c4cc(F)ccc34)CC2)c1` [Example 96, 3-[4-(6-fluoro-1-furan-2-ylmethyl-1H-indol-3-yl)-piperidin-1-ylmethyl]-benzoic acid], the IC50 at histamine-H1 receptors (setting [2]) is 107 nM.

Regarding `O=C(O)c1ccccc1OCCN1CCC(c2cn(CCc3ccsc3)c3cc(F)ccc23)CC1` [Example 110, 2-(2-{4-[6-fluoro-1-(2-thiophen-3-yl-ethyl)-1H-indol-3-yl]-piperidin-1-yl}-ethoxy)-benzoic acid], the IC50 on histamine-H1 receptors (setting [2]) was found to be 23 nM.

Turning to `O=C(O)c1ccccc1OCCN1CCC(c2cn(Cc3ccoc3)c3cc(F)ccc23)CC1` [Example 112, 2-{2-[4-(6-fluoro-1-furan-3-ylmethyl-1H-indol-3-yl)-piperidin-1-yl]-ethoxy}-benzoic acid], the IC50 on histamine-H1 receptors (setting [2]) was 31 nM.
